This experiment has as its system HCoV-OC43. In words: Test Example 2: CPE inhibition in HCoV-OC43 infected BHK-21 cells, single or combination use. Format: cell-based, Human coronavirus (HCoV-OC43).
[1] abbreviates: Betacoronavirus 1, OC43, BHK-21, read-out: CPE inhibition rate.

Each structure is given as a SMILES string.

Consider `NC(=O)c1nc(F)cnc1O` [T-705, favipiravir], for which, for the setting “single use of 1000 μM of T-705, BHK-21 cells”, the CPE inhibition rate amounted to 79%. Consider `CCC(CC)COC(=O)[C@H](C)N[P@](=O)(OC[C@H]1O[C@@](C#N)(c2ccc3c(N)ncnn23)[C@H](O)[C@@H]1O)Oc1ccccc1` [remdesivir], for which, under setting [1], the inhibition (usually how much of the control response was suppressed) at 0.1 µM turned out to be 51% and the inhibition at 0.3 µM worked out at 80%.

Source of the values: US20230210848A1, “CORONAVIRUS INFECTION THERAPEUTIC AGENT FORMED THROUGH COMBINATION OF PYRAZINE DERIVATIVE AND ANOTHER CORONAVIRUS INFECTION THERAPEUTIC DRUG” (priority 2020, published 2023).
